The text below walks through data of patent publication US20060276498A1 (Wyeth, priority 2005, published 2006).

In this assay the target is T1, human Cot/Tpl2 kinase (Homo sapiens, UniProt P41279).
T1 construct: human Cot/Tpl2 kinase construct encoding residues 30-398; 6His (N); made in house; host or cells: Sf9 insect cells (baculovirus system, BD Biosciences)
Kind of assay: Tpl2/Cot kinase assay, GST-MEK1 phosphorylation detected by ELISA (DELFIA Eu). The assay is classed as biochemical. How it is done: Sf9 cells expressing the kinase were lysed in 50 mM NaPhosphate pH=8; 300 mM NaCl; 5 mM imidazole; 0.1 mM EGTA; 25 mM beta-glycerophosphate; 1% TX-100, 1% glycerol; 6 mM beta-mercaptoethanol and protease inhibitors. The lysate was clarified by centrifugation and was loaded onto a Ni-Sepharose column. The column was washed with 50 mM NaPhosphate pH=8; 300 mM NaCl; 15 mM imidazole; 1% glycerol; and 6 mM beta-mercaptoethanol. His-Tpl2 was eluted with 50 mM NaPhosphate pH=8; 300 mM NaCl; 250 mM imidazole; 1% glycerol; and 6 mM beta-mercaptoethanol. The eluted protein was further purified by size exclusion chromatography. Fractions corresponding to monomeric Tpl2 were then used in the assay.
Tpl2/Cot activity was directly assayed using GST-MEK1 as a substrate. GST-MEK1 phosphorylation on serine residues 217 and 221 was detected by ELISA. 0.4 nM Tpl2 was incubated with 35 nM GST-MEK1 in a kinase reaction buffer containing 20 mM MOPS pH=7.2; 50 uM ATP; 20 mM MgCl2; 1 mM DTT; 25 mM β-glycerophosphate; 5 mM EGTA; and 1 mM sodium orthovanadate for 1 h at 30° C. The compounds of the inventions solubilized in 100% DMSO were pre-diluted in assay buffer so that the final concentration of DMSO in the reaction was 1%. The kinase reaction was carried out in 100 ul volume on 96 well plates. The kinase reaction was then stopped with the addition of 100 mM EDTA. […] After a 1 hour incubation at room temperature, the detection plate was washed 4 times with TBST (TBS+0.05% Tween 20) and then incubated for another hour at room temperature with anti phospho-MEK1 antibody (Cell Signaling) 1:1000 in 10 mM MOPS 7.5; 150 mM NaCl; 0.05% Tween 20; 0.1% Gelatin; 0.02% NaN3; and 1% BSA. The detection plate was washed again and incubated for 30 min with DELFIA Europium (Eu) labeled goat anti-rabbit IgG (Perkin-Elmer), 1:4000 in the same buffer used for the primary incubation. After a final wash, Eu detection solution was added to each well and the Eu signal was measured in a Wallac Victor^2 Multilabel Counter. IC50 calculations were preformed using the XLfit software package (IDBS, Guildford, UK).
In general terms: ELISA stands for enzyme-linked immunosorbent assay.

The mark [1] stands for this setting: Table 2, additional representative compounds.
[2] abbreviates: Table 1, 0.4 nM Tpl2, 35 nM GST-MEK1, 50 uM ATP, 1 h at 30° C.

T1 sequence (P41279 30-398): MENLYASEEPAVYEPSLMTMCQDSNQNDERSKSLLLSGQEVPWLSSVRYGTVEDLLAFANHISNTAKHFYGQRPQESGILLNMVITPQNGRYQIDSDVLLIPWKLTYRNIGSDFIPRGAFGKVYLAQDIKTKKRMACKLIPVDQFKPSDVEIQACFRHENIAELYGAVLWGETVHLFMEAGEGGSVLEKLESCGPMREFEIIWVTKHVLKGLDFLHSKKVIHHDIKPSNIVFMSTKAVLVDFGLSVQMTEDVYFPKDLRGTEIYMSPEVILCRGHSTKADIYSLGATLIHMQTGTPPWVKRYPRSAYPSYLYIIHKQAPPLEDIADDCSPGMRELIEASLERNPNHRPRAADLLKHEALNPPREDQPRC

The IC50 is the concentration needed to halve the response being measured. The low end stands for greater potency in that assay, the high end for weaker potency in that assay. Take `N#Cc1cnc2cnc(NCCN3CCCCC3)cc2c1Nc1ccc(F)c(Cl)c1` [Example 122, 4-[(3-chloro-4-fluorophenyl)amino]-6-[(2-piperidin-1-ylethyl)amino]-1,7-naphthyridine-3-carbonitrile]: the IC50 under setting [1] is 2500 nM. The same measure, in the same setting: next, `C[C@@H](Nc1cc2c(NC3CCCCCC3)c(C#N)cnc2cn1)c1ccccc1` [Example 133, 4-(cycloheptylamino)-6-{[(1R)-1-phenylethyl]amino}-1,7-naphthyridine-3-carbonitrile]: 920 nM; `N#Cc1cnc2cnc(F)cc2c1NCc1ccc(F)c(Cl)c1` [Example 98, 4-[(3-chloro-4-fluorobenzyl)amino]-6-fluoro-1,7-naphthyridine-3-carbonitrile]: greater than 40000 nM.

The molecule `N#Cc1cnc2cnc(NCCN3CCOCC3)cc2c1Nc1ccc(Sc2ccccc2)cc1` [Example 11, 6-(2-morpholinoethylamino)-4-(4-(phenylthio)phenylamino)-1,7-naphthyridine-3-carbonitrile] showed an IC50 under setting [2] of 6 nM.

Regarding `CN1CCN(CCCNc2cc3c(Nc4ccc(F)c(Cl)c4)c(C#N)cnc3cn2)CC1` [Example 45, 4-[(3-chloro-4-fluorophenyl)amino]-6-{[3-(4-methylpiperazin-1-yl)propyl]amino}-1,7-naphthyridine-3-carbonitrile], the IC50 under setting [2] was 20000 nM. On the same count and under the same terms, next, `CCN1CCC[C@@H]1CNc1cc2c(Nc3ccc(F)c(Cl)c3)c(C#N)cnc2cn1` [Example 75]: 7000 nM. Turning to `N#Cc1cnc2cnc(NCc3cccnc3)cc2c1NC1CC1` [Example 111, 4-(cyclopropylamino)-6-[(pyridin-3-ylmethyl)amino]-1,7-naphthyridine-3-carbonitrile], the IC50 under setting [1] was found to be 2800 nM.

`N#Cc1cnc2cnc(NCc3cccnc3)cc2c1Nc1cc(Cl)cc(Cl)c1` [Example 69, 4-[(3,5-dichlorophenyl)amino]-6-[(pyridin-3-ylmethyl)amino]-1,7-naphthyridine-3-carbonitrile] registered an IC50 under setting [2] of 4100 nM. As to `CC(C)c1ccc(Nc2c(C#N)cnc3cnc(F)cc23)cc1` [Example 101, 6-fluoro-4-[(4-isopropylphenyl)amino]-1,7-naphthyridine-3-carbonitrile], under setting [1], the 50% inhibitory concentration (IC50) is greater than 40000 nM.

As to `CC(C)(Nc1cc2c(Nc3ccc(F)c(Cl)c3)c(C#N)cnc2cn1)c1ccccc1` [Example 118, 4-[(3-chloro-4-fluorophenyl)amino]-6-[(1-methyl-1-phenylethyl)amino]-1,7-naphthyridine-3-carbonitrile], the IC50 under setting [1] came out at 1200 nM. `CC[C@@H](Nc1cc2c(Nc3ccc(F)c(Cl)c3)c(C#N)cnc2cn1)c1ccccc1` [Example 51, 4-[(3-chloro-4-fluorophenyl)amino]-6-{[(1R)-1-phenylpropyl]amino}-1,7-naphthyridine-3-carbonitrile] registered an IC50 under setting [2] of 410 nM. On the same count and under the same terms, the result for `Cc1ccc(Nc2c(C#N)cnc3cnc(N[C@H](C)c4ccccc4)cc23)cc1Br` [Example 65] reads 6200 nM. `C#CC1(Nc2c(C#N)cnc3cnc(F)cc23)CCCCC1` [Example 142, 4-[(1-ethynylcyclohexyl)amino]-6-fluoro-1,7-naphthyridine-3-carbonitrile] registered an IC50 under setting [1] of 28000 nM. Turning to `CC(C)c1cccc(Nc2c(C#N)cnc3cnc(F)cc23)c1` [Example 97, 6-fluoro-4-[(3-isopropylphenyl)amino]-1,7-naphthyridine-3-carbonitrile], the IC50 under setting [1] was greater than 40000 nM. Molecule `Cn1nc(C(C)(C)C)cc1Nc1c(C#N)cnc2ccc(N)cc12` [Example 139, 6-amino-4-[(3-tert-butyl-1-methyl-1H-pyrazol-5-yl)amino]quinoline-3-carbonitrile] registered an IC50 under setting [1] of 270 nM. For the molecule `N#Cc1cnc2cnc(NCc3cccnc3)cc2c1Nc1ccc(Nc2ccccc2)cc1` [Example 18, 4-(4-(phenylamino)phenylamino)-6-(pyridin-3-ylmethylamino)-1,7-naphthyridine-3-carbonitrile], the IC50 under setting [2] was greater than 10000 nM. For `N#Cc1cnc2cnc(NCCN3CCN(Cc4ccccc4)CC3)cc2c1Nc1ccc(F)c(Cl)c1` [Example 117, 6-(2-(4-benzylpiperazin-1-yl)ethylamino)-4-(3-chloro-4-fluorophenylamino)-1,7-naphthyridine-3-carbonitrile], under setting [1], the midpoint of inhibition, the IC50, lay at 2400 nM. Consider `N#Cc1cnc2cnc(NCCN3CCOCC3)cc2c1Nc1cccc(-c2ccco2)c1` [Example 80, 4-(3-(furan-2-yl)phenylamino)-6-(2-morpholinoethylamino)-1,7-naphthyridine-3-carbonitrile], for which, under setting [2], the IC50 was greater than 10000 nM.

Under setting [2], `C[C@H](Nc1cc2c(Nc3ccc(F)c(Cl)c3)c(C#N)cnc2cn1)[C@H](O)c1ccccc1` [Example 54, 4-[(3-chloro-4-fluorophenyl)amino]-6-{[(1S, 2R)-2-hydroxy-1-methyl-2-phenylethyl]amino}-1,7-naphthyridine-3-carbonitrile] yielded a half-inhibitory concentration (IC50) of 1300 nM. Under setting [1], `N#Cc1cnc2cnc(NCc3ccncc3)cc2c1Nc1ccc(F)c(Cl)c1` [Example 119, 4-(3-chloro-4-fluorophenylamino)-6-(pyridin-4-ylmethylamino)-1,7-naphthyridine-3-carbonitrile] displayed an IC50 of 31 nM.

`N#Cc1cnc2cnc(NCCN3CCOCC3)cc2c1Nc1cccc(Oc2ccccc2)c1` [Example 2, 6-(2-morpholinoethylamino)-4-(3-phenoxyphenylamino)-1,7-naphthyridine-3-carbonitrile]: under setting [2], the IC50 amounted to 11600 nM.

As for `N#Cc1cnc2cnc(F)cc2c1Nc1cccc([N+](=O)[O-])c1` [Example 105, 6-fluoro-4-[(3-nitrophenyl)amino]-1,7-naphthyridine-3-carbonitrile], the IC50 under setting [1] is greater than 10000 nM. In the case of `COc1ccc(Nc2c(C#N)cnc3cnc(NCCN4CCOCC4)cc23)cc1` [Example 31, 4-(4-methoxyphenylamino)-6-(2-morpholinoethylamino)-1,7-naphthyridine-3-carbonitrile], the IC50 under setting [2] was greater than 40000 nM.

Under setting [2], `N#Cc1cnc2cnc(NC(CN3CCOCC3)c3ccccc3)cc2c1Nc1ccc(F)c(Cl)c1` (stereo not drawn) [Example 60, 4-[(3-chloro-4-fluorophenyl)amino]-6-[(2-morpholin-4-yl-1-phenylethyl)amino]-1,7-naphthyridine-3-carbonitrile] yielded a concentration for half-maximal inhibition (IC50) of 2400 nM. Consider `CN(C)CCNc1cc2c(Nc3ccc(Cc4ccccc4)cc3)c(C#N)cnc2cn1` [Example 108, 4-[(4-benzylphenyl)amino]-6-{[2-(dimethylamino)ethyl]amino}-1,7-naphthyridine-3-carbonitrile], for which the IC50 under setting [1] was greater than 10000 nM. Take `N#Cc1cnc2cnc(NCCN3CCOCC3)cc2c1Nc1ccc(Br)cc1` [Example 5, 4-(4-bromophenylamino)-6-(2-morpholinoethylamino)-1,7-naphthyridine-3-carbonitrile]: the IC50 under setting [2] was greater than 40000 nM.

For `CN(C)CCCNc1cc2c(Nc3ccc(Cc4ccccc4)cc3)c(C#N)cnc2cn1` [Example 21, 4-(4-benzylphenylamino)-6-(3-(dimethylamino)propylamino)-1,7-naphthyridine-3-carbonitrile], under setting [2], the IC50 stood at 9.6 nM. As to `N#Cc1cnc2cnc(NCc3cccc(Br)c3)cc2c1Nc1ccc(F)c(Cl)c1` [Example 121, 6-[(3-bromobenzyl)amino]-4-[(3-chloro-4-fluorophenyl)amino]-1,7-naphthyridine-3-carbonitrile], the 50% inhibitory concentration (IC50) under setting [1] was found to be 430 nM. `N#Cc1cnc2cnc(N[C@@H]3CCc4ccccc43)cc2c1Nc1ccc(F)c(Cl)c1` [Example 73] had an IC50 under setting [2] of 430 nM. For `N#Cc1cnc2cnc(F)cc2c1Nc1cccc(I)c1` [Example 104, 6-fluoro-4-[(3-iodophenyl)amino]-1,7-naphthyridine-3-carbonitrile], the IC50 under setting [1] was greater than 40000 nM. `N#Cc1cnc2cnc(NCCN3CCOCC3)cc2c1Nc1ccc(Oc2ccccc2)cc1` [Example 41, 6-[(2-morpholin-4-ylethyl)amino]-4-[(4-phenoxyphenyl)amino]-1,7-naphthyridine-3-carbonitrile] came in with an IC50 under setting [2] of 300 nM. Still for that read-out and setting: the result for `N#Cc1cnc2cnc(NCCN3CCOCC3)cc2c1Nc1cccc(C(N)=O)c1` [Example 86, 3-(3-cyano-6-(2-morpholinoethylamino)-1,7-naphthyridin-4-ylamino)benzamide] reads greater than 10000 nM; that for `CC(C)c1ccc(Nc2c(C#N)cnc3cnc(NCCN4CCOCC4)cc23)cc1` [Example 43, 4-[(4-isopropylphenyl)amino]-6-[(2-morpholin-4-ylethyl)amino]-1,7-naphthyridine-3-carbonitrile], greater than 40000 nM.
